Earlier results as cited in patent US10105334B2, “Particle formulations of all-trans retinoic acid and transforming growth factor beta for the treatment of type 1 diabetes mellitus” (University of Pittsburgh—Of the Commonwealth System of …, priority 2014, dated 2018).

Settings: Tsang et al., Cytokine 7:389-97 (1995)

## TGFβ: growth factor and immunomodulatory cytokine
  ED50 (physiologically-active concentration): 0.04-0.2 ng/mL
